We go through three compounds from patent US12042483B2, “Prophylactic and therapeutic drug for nonalcoholic fatty liver disease” (Kowa Company, Ltd., priority 2017, dated 2024).

SMILES strings stand for the structures.

What all share (type): in vivo
Assay [1] has as its system NASH-HCC mouse. Kind of assay: Ballooning of hepatocytes score, NASH-HCC mouse model (Example 1, Compound 1 with tofogliflozin). The settings on record: 3 weeks, group mean of scores 0-2, control 1.33, not significant vs control. On the procedure:
A NASH-HCC mouse is a model animal that develops liver cirrhosis from fatty liver via NASH when it is fed with a high fat diet, and subsequently develops hepatocellular carcinoma (Non-Patent Document 9). The effect of compound 1 combined with tofogliflozin was examined using the NASH-HCC mouse model. NASH-HCC mice were prepared with reference to Non-Patent Document 9, and were used for this experiment. Specifically, male C57BL/6J mice were subcutaneously administered 200 μg of streptozotocin on the second day after birth. The mice were fed ad libitum with a high-fat diet (HFD-32, Clea Japan, Inc.) for 2 weeks starting from 4-week-old. […] Daily food consumption of the mice in each group were measured while the drugs were administered so that the mice of all groups were fed with the same amount of food as those for the control group. […] Using the specimens, the lipid droplet size in hepatocyte was analyzed by image analysis software Image J. The area of 6000 to 10,000 lipid droplets was measured in each specimen. The median of the lipid droplet area was calculated for each mouse and then the median and quartile were calculated for each group based on the median for each mouse in the group. […] Ballooning of hepatocytes in each mouse was scored under blind conditions according to the following criteria (Kleiner et al., Hepatology 41, 1313-21, 2005). […]

Assay [2] relates to NASH-HCC mouse. The assay can be described thus: Ballooning of hepatocytes score, NASH-HCC mouse model (Example 2, Compound 1 with ipragliflozin). To be noted: 3 weeks, group mean of scores 0-2, control 1.50, not significant vs control. On the procedure: Ballooning of hepatocytes in each mouse was scored under blind conditions according to the following criteria (Kleiner et al., Hepatology 41, 1313-21, 2005). No balloon cells: 0 Balloon cell is rare (Few balloon cells): 1 Many Balloon cells or prominent (Ballooning): 2 Then, the mean value of the scores (ballooning score) was calculated in each group and the values were shown (FIG. 2). Statistical processing was performed using statistical software EZR, which extends the functions of R and R commander. The software is distributed free of charge on the website of Jichi Medical University Saitama Medical Center (Bone Marrow Transplantation (2013) 48, 452-458). The Steel test (N=5 to 7) was performed using EZR, the drug administration group was labeled with the mark * in figures when the group had the significant difference at p<0.05 with respect to the control group, and labeled with the mark ** when the group had the significant difference at p<0.01. The effect of Compound 1 combined with ipragliflozin was examined in NASH-HCC mice (Non-Patent Document 9). NASH-HCC mice were prepared in the same manner as in 1) of Example 1, and were used for this experiment. […]

For assay [3], the system named is NASH-HCC mouse. Kind of assay: Lipid droplet size in hepatocytes, NASH-HCC mouse model (Example 1, Compound 1 with tofogliflozin). The settings on record: 3 weeks, control 1.17, not significant vs control. On the procedure:
A NASH-HCC mouse is a model animal that develops liver cirrhosis from fatty liver via NASH when it is fed with a high fat diet, and subsequently develops hepatocellular carcinoma (Non-Patent Document 9). The effect of compound 1 combined with tofogliflozin was examined using the NASH-HCC mouse model. NASH-HCC mice were prepared with reference to Non-Patent Document 9, and were used for this experiment. Specifically, male C57BL/6J mice were subcutaneously administered 200 μg of streptozotocin on the second day after birth. The mice were fed ad libitum with a high-fat diet (HFD-32, Clea Japan, Inc.) for 2 weeks starting from 4-week-old. The mice were separated into four groups as described in below 2) and were administered drugs from 6-week-old to 9-week-old as described in below 3). Daily food consumption of the mice in each group were measured while the drugs were administered so that the mice of all groups were fed with the same amount of food as those for the control group. […] Using the specimens, the lipid droplet size in hepatocyte was analyzed by image analysis software Image J. The area of 6000 to 10,000 lipid droplets was measured in each specimen. The median of the lipid droplet area was calculated for each mouse and then the median and quartile were calculated for each group based on the median for each mouse in the group. […]

Where [4] appears, read: 0.1 mg/kg Compound 1, oral once a day.
The mark [5] stands for this setting: 10 mg/kg tofogliflozin, oral once a day.

Consider `CC[C@@H](Oc1cccc(CN(CCCOc2ccc(OC)cc2)c2nc3ccccc3o2)c1)C(=O)O` [Compound 1, (R)-2-[3-[[N-(benzoxazol-2-yl)-N-3-(4-methoxyphenoxy)propyl]aminomethyl]phenoxy]butyric acid], for which the ballooning score in assay [1] (setting [4]) is 0.60; in assay [2] (setting [4]), 1.35. Moreover, the “median of lipid droplet size” value in assay [3] (setting [4]) worked out at 1.00 μm^2.
Consider `OC[C@H]1O[C@@H](c2ccc(F)c(Cc3cc4ccccc4s3)c2)[C@H](O)[C@@H](O)[C@@H]1O` [ipragliflozin, (1S)-1,5-anhydro-1-C-{3-[(1-benzothiophen-2-yl)methyl]-4-fluorophenyl}-D-glucitol], for which, in assay [2] (3 mg/kg ipragliflozin, oral once a day), the ballooning score is 0.88.
On to `CCc1ccc(Cc2ccc3c(c2)[C@]2(OC3)O[C@H](CO)[C@@H](O)[C@H](O)[C@H]2O)cc1` [tofogliflozin, (1S,3′R,4'S,5'S,6′R)-6-[(4-ethylphenyl)methyl]-6′-(hydroxymethyl)-3′,4′,5′,6′-tetrahydro-3H-spiro[2-benzofuran-1,2′-pyran]-3′,4′,5′-triol], for which the ballooning score in assay [1] (setting [5]) is 0.71. Further, the “median of lipid droplet size” value in assay [3] (setting [5]) stood at 1.00 μm^2.
